Test results published in patent US9809574B2, “Isoindoline or isoquinoline compounds, a process for their preparation and pharmaceutical compositions containing them” (LES LABORATOIRES SERVIER, priority 2013, dated 2017).
Where a name gives a salt, the structure may show the parent alone. Read-outs that look alike come from different tables or passages of the source.

Legend:
[1] = system: RS4; 11 leukaemia cell line; assay: In vitro cytotoxicity, Microculture Tetrazolium Assay (MTT); assay type: cell-based; conditions: Homo sapiens, 11 cells exposed for 48 hours
Experimental: The cytotoxicity studies were carried out on the RS4; 11 leukaemia cell line and on H146 small Cell Lung Carcinoma cell line. The cells are distributed onto microplates and exposed to the test compounds for 48 hours. The cell viability is then quantified by a colorimetric assay, the Microculture Tetrazolium Assay (Cancer Res., 1987, 47, 939-942).

Bcl-2 protein = Bcl-2 protein (histag-Bcl-2, UniProtKB P10415) (Homo sapiens (Human), UniProt P10415); assay: Inhibition of Bcl-2 by the fluorescence polarisation technique; assay type: binding
Excerpt: For partial inhibitors, the percentage fluorescence polarisation inhibition for a given concentration of the test compound is indicated.

[2] = fluorescence polarisation test, incubation for 2 hours, read-out: IC50 (nM) Bcl-2 FP

Chain of Bcl-2 protein (P10415 whole entry): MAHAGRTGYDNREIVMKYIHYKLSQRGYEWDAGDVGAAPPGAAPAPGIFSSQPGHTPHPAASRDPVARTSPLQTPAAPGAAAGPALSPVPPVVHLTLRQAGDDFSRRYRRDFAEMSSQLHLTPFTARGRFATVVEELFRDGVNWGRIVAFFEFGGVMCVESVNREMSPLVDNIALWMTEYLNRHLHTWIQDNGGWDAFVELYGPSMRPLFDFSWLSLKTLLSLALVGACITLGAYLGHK

Q: `CCCCN(C(=O)c1cc(-c2cc3c(cc2C(=O)N2Cc4ccccc4C[C@H]2CN2CCOCC2)CN(C(=O)Oc2ccccc2)CC3)n(C)c1C)c1ccc(O)cc1` [Example 187, Phenyl 6-{4-[butyl(4-hydroxyphenyl)carbamoyl]-1,5-dimethyl-1H-pyrrol-2-yl}-7-[(3S)-3-(morpholin-4-ylmethyl)-1,2,3,4-tetrahydroisoquinoline-2-carbonyl]-1,2,3,4-tetrahydroisoquinoline-2-carboxylate] was tested. Which IC50 [1] did it give?
A: 4.6 nM

Q: And the IC50 (Bcl-2 protein; [2])?
A: 3 nM

Q: With `C[C@@H]1Cc2ccccc2CN1C(=O)c1cc2c(cc1-c1cc(C(=O)N(C)c3ccc(O)cc3)c3n1CCCC3)CCN(C(=O)NC(C)(C)C)C2` [Example 48, N-tert-Butyl-6-{1-[(4-hydroxyphenyl)(methyl)carbamoyl]-5,6,7,8-tetrahydroindolizin-3-yl}-7-[(3R)-3-methyl-1,2,3,4-tetrahydroisoquinoline-2-carbonyl]-1,2,3,4-tetrahydroisoquinoline-2-carboxamide] as the molecule, how does the IC50 [1] read?
A: 40 nM

Q: What about the IC50 (Bcl-2 protein; [2]) of the same molecule?
A: 8.7 nM

Q: What does the source list for `Cc1c(C(=O)N(C)c2ccc(O)cc2)cc(-c2cc3c(cc2C(=O)N2Cc4ccccc4C[C@H]2CN2CCOCC2)CN(C(=O)Oc2cnc4[nH]ccc4c2)CC3)n1C` [Example 579, 1H-Pyrrolo[2,3-b]pyridin-5-yl 6-{4-[(4-hydroxyphenyl)(methyl)carbamoyl]-1,5-dimethyl-1H-pyrrol-2-yl}-7-[(3S)-3-(morpholin-4-ylmethyl)-1,2,3,4-tetrahydroisoquinoline-2-carbonyl]-1,2,3,4-tetrahydroisoquinoline-2-carboxylate]?
A: IC50 [1]: 17 nM; IC50 (Bcl-2 protein): 4.4 nM

Q: What does the source list for `Cc1c(C(=O)N(C)c2ccc(O)cc2)cc(-c2cc3c(cc2C(=O)N2Cc4ccccc4C[C@H]2CN2CCOCC2)CN(C(=O)Oc2ccccc2)CC3)n1C` [Example 88, Phenyl 6-{4-[(4-hydroxyphenyl)(methyl)carbamoyl]-1,5-dimethyl-1H-pyrrol-2-yl}-7-[(3S)-3-(morpholin-4-ylmethyl)-1,2,3,4-tetrahydroisoquinoline-2-carbonyl]-1,2,3,4-tetrahydroisoquinoline-2-carboxylate hydrochloride]?
A: IC50 [1]: 3.9 nM; IC50 (Bcl-2 protein; [2]): 3.5 nM

Q: `Cc1c(C(=O)N(C)c2ccc(O)cc2)cc(-c2cc3c(cc2C(=O)N2Cc4ccccc4C[C@H]2CN2CCN(C)CC2)CN(C(=O)Oc2cccc(C(=O)O)c2)CC3)n1C` [Example 733, 3-(6-{4-[(4-Hydroxyphenyl)(methyl)carbamoyl]-1,5-dimethyl-1H-pyrrol-2-yl}-7-[(3S)-3-[(4-methylpiperazin-1-yl)methyl]-1,2,3,4-tetrahydroisoquinoline-2-carbonyl]-1,2,3,4-tetrahydroisoquinoline-2-carbonyloxy)benzoic acid] was tested. Which IC50 [1] did it give?
A: > 150 nM

Q: And the IC50 (Bcl-2 protein; [2])?
A: 1.5 nM

Q: For `Cc1c(C(=O)N(C)c2ccccc2)cc(-c2cc3c(cc2C(=O)N2Cc4ccccc4C[C@H]2CN2CCOCC2)CN(C(=O)Oc2cnc4[nH]ccc4c2)CC3)n1C` [Example 633, 1H-Pyrrolo[2,3-b]pyridin-5-yl 6-{1,5-dimethyl-4-[methyl(phenyl)carbamoyl]-1H-pyrrol-2-yl}-7-[(3S)-3-(morpholin-4-ylmethyl)-1,2,3,4-tetrahydroisoquinoline-2-carbonyl]-1,2,3,4-tetrahydroisoquinoline-2-carboxylate], which IC50 [1] is on record?
A: 22 nM

Q: What about the IC50 (Bcl-2 protein; [2]) of the same molecule?
A: 6.1 nM

Q: Which IC50 [1] does the source give for `Cc1c(C(=O)N(C)c2ccc(O)cc2)cc(-c2cc3c(cc2C(=O)N2Cc4ccccc4C[C@H]2C)CN(C(=O)C(C)Oc2ccccc2)C3)n1C` (stereo partly drawn) [Example 104, N-(4-hydroxyphenyl)-N,1,2-trimethyl-5-{6-[(3R)-3-methyl-1,2,3,4-tetrahydroisoquinoline-2-carbonyl]-2-(2-phenoxypropanoyl)-2,3-dihydro-1H-isoindol-5-yl}-1H-pyrrole-3-carboxamide] here?
A: 65 nM

Q: What about the IC50 (Bcl-2 protein; [2]) of the same molecule?
A: 6.7 nM

Q: `Cc1c(C(=O)N(C)c2ccccc2)cc(-c2cc3c(cc2C(=O)N2Cc4ccccc4C[C@H]2C)CN(C(=O)Cc2ccccc2)CC3)n1C` [Example 118, N,1,2-Trimethyl-5-{7-[(3R)-3-methyl-1,2,3,4-tetrahydroisoquinoline-2-carbonyl]-2-(2-phenylacetyl)-1,2,3,4-tetrahydroisoquinolin-6-yl}-N-phenyl-1H-pyrrole-3-carboxamide] was tested. Which IC50 [1] did it give?
A: 43 nM

Q: What about the IC50 (Bcl-2 protein; [2]) of the same molecule?
A: 3.4 nM

Q: What does the source list for `C[C@@H]1Cc2ccccc2CN1C(=O)c1cc2c(cc1-c1cc(C(=O)N(C)c3ccc(O)cc3)c3n1CCCC3)CCN(C(=O)CCc1ccc(NCCN(C)C)cc1)C2` [Example 138, 3-{2-[3-(4-{[2-(Dimethylamino)ethyl]amino}phenyl)propanoyl]-7-[(3R)-3-methyl-1,2,3,4-tetrahydroisoquinoline-2-carbonyl]-1,2,3,4-tetrahydroisoquinolin-6-yl}-N-(4-hydroxyphenyl)-N-methyl-5,6,7,8-tetrahydroindolizine-1-carboxamide]?
A: IC50 [1]: 114 nM; IC50 (Bcl-2 protein; [2]): 12 nM

Q: What does the source list for `Cc1c(C(=O)N(C)c2ccc(O)cc2)cc(-c2cc3c(cc2C(=O)N2Cc4ccccc4C[C@H]2CN2CCOCC2)CN(C(=O)Oc2ccc(Cl)c(Cl)c2)CC3)n1C` [Example 573, 3,4-Dichlorophenyl 6-{4-[(4-hydroxyphenyl)(methyl)carbamoyl]-1,5-dimethyl-1H-pyrrol-2-yl}-7-[(3S)-3-(morpholin-4-ylmethyl)-1,2,3,4-tetrahydroisoquinoline-2-carbonyl]-1,2,3,4-tetrahydroisoquinoline-2-carboxylate]?
A: IC50 [1]: 43 nM; IC50 (Bcl-2 protein; [2]): 18 nM

Q: How did the IC50 [1] turn out when `C[C@@H]1Cc2ccccc2CN1C(=O)c1cc2c(cc1-c1cc(C(=O)N(C)c3ccc(O)cc3)c3n1CCCC3)CN(C(=O)N1CCC(c3ccccc3)C1)C2` (stereo partly drawn) [Example 66, N-(4-Hydroxyphenyl)-N-methyl-3-{6-[(3R)-3-methyl-1,2,3,4-tetrahydroisoquinoline-2-carbonyl]-2-(3-phenylpyrrolidine-1-carbonyl)-2,3-dihydro-1H-isoindol-5-yl}-5,6,7,8-tetrahydroindolizine-1-carboxamide] was run?
A: 80 nM

Q: And the IC50 (Bcl-2 protein; [2])?
A: 16 nM

Q: With `CN(C(=O)c1cc(-c2cc3c(cc2C(=O)N2Cc4ccccc4C[C@H]2CN2CCOCC2)CN(C(=O)Oc2ccccc2)C3)n2c1CCCC2)c1ccc(O)cc1` [Example 16, Phenyl 5-{1-[(4-hydroxyphenyl)(methyl)carbamoyl]-5,6,7,8-tetrahydroindolizin-3-yl}-6-[(3S)-3-(morpholin-4-ylmethyl)-1,2,3,4-tetrahydroisoquinoline-2-carbonyl]-2,3-dihydro-1H-isoindole-2-carboxylate hydrochloride] as the molecule, how does the IC50 [1] read?
A: 27 nM

Q: What about the IC50 (Bcl-2 protein; [2]) of the same molecule?
A: 6 nM

Q: Which IC50 [1] does the source give for `C[C@@H]1Cc2ccccc2CN1C(=O)c1cc2c(cc1-c1cc(C(=O)N(C)c3ccc(O)cc3)c3n1CCCC3)CCN(C(=O)N1CCC(c3ccccc3)C1)C2` (stereo partly drawn) [Example 67, N-(4-Hydroxyphenyl)-N-methyl-3-{7-[(3R)-3-methyl-1,2,3,4-tetrahydroisoquinoline-2-carbonyl]-2-(3-phenylpyrrolidine-1-carbonyl)-1,2,3,4-tetrahydroisoquinolin-6-yl}-5,6,7,8-tetrahydroindolizine-1-carboxamide] here?
A: 51 nM

Q: And the IC50 (Bcl-2 protein; [2])?
A: 9.4 nM

Q: What does the source list for `COc1ccc(CCCN2Cc3cc(C(=O)N4Cc5ccccc5C[C@H]4C)c(-c4cc(C(=O)N(C)c5ccc(O)cc5)c(C)n4C)cc3C2)cc1` [Example 116, N-(4-Hydroxyphenyl)-5-{2-[3-(4-methoxyphenyl)propyl]-6-[(3R)-3-methyl-1,2,3,4-tetrahydroisoquinoline-2-carbonyl]-2,3-dihydro-1H-isoindol-5-yl}-N,1,2-trimethyl-1H-pyrrole-3-carboxamide]?
A: IC50 [1]: 181 nM; IC50 (Bcl-2 protein; [2]): 21 nM

Q: What does the source list for `C[C@@H]1Cc2ccccc2CN1C(=O)c1cc2c(cc1-c1cc(C(=O)N(C)c3ccc(O)cc3)c3n1CCCC3)CCN(C(=O)N(C)c1ccccc1)C2` [Example 74, 6-{1-[(4-Hydroxyphenyl)(methyl)carbamoyl]-5,6,7,8-tetrahydroindolizin-3-yl}-N-methyl-7-[(3R)-3-methyl-1,2,3,4-tetrahydroisoquinoline-2-carbonyl]-N-phenyl-1,2,3,4-tetrahydroisoquinoline-2-carboxamide]?
A: IC50 [1]: 94 nM; IC50 (Bcl-2 protein; [2]): 6.1 nM

Q: How did the IC50 [1] turn out when `Cc1c(C(=O)N(C)c2ccc(O)cc2)cc(-c2cc3c(cc2C(=O)N2Cc4ccccc4C[C@H]2C)CN(C(=O)Oc2ccc(CCC(=O)N(C)C)cc2)CC3)n1C` [Example 804, 4-[2-(Dimethylcarbamoyl)ethyl]phenyl 6-{4-[(4-hydroxyphenyl)(methyl)carbamoyl]-1,5-dimethyl-1H-pyrrol-2-yl}-7-[(3R)-3-methyl-1,2,3,4-tetrahydroisoquinoline-2-carbonyl]-1,2,3,4-tetrahydroisoquinoline-2-carboxylate] was run?
A: 2.2 nM

Q: What about the IC50 (Bcl-2 protein; [2]) of the same molecule?
A: 3.6 nM

Q: For `CN(C(=O)c1cc(-c2cc3c(cc2C(=O)N2Cc4ccccc4C[C@H]2CN2CCOCC2)CN(S(=O)(=O)Cc2ccccc2)CC3)n2c1CCCC2)c1ccc(O)cc1` [Example 4, N-(4-Hydroxyphenyl)-N-methyl-3-{7-[(3S)-3-(morpholin-4-ylmethyl)-1,2,3,4-tetrahydroisoquinoline-2-carbonyl]-2-phenylmethanesulfonyl-1,2,3,4-tetrahydroisoquinolin-6-yl}-5,6,7,8-tetrahydroindolizine-1-carboxamide], which IC50 [1] is on record?
A: 71 nM

Q: And the IC50 (Bcl-2 protein; [2])?
A: 9.2 nM

Q: For `COc1cc(C#N)ccc1OC(=O)N1CCc2cc(-c3cc(C(=O)N(C)c4ccc(O)cc4)c4n3CCCC4)c(C(=O)N3Cc4ccccc4C[C@H]3CN3CCOCC3)cc2C1` [Example 148, 4-Cyano-2-methoxyphenyl 6-{1-[(4-hydroxyphenyl)(methyl)carbamoyl]-5,6,7,8-tetrahydroindolizin-3-yl}-7-[(3S)-3-(morpholin-4-ylmethyl)-1,2,3,4-tetrahydroisoquinoline-2-carbonyl]-1,2,3,4-tetrahydroisoquinoline-2-carboxylate], which IC50 [1] is on record?
A: 10 nM

Q: And the IC50 (Bcl-2 protein; [2])?
A: 3 nM
